In series [1] the target is T1, glucagon fibrils (Homo sapiens, UniProt P01275).
T1 construct: fibrils of the peptide hormone glucagon
The experiment in a line: Fibril titration with ANS (fluorescence). The note with it: 2.5 μg aggregate material, ANS 20 to 167 μM. It is filed as binding. Here is the method: (§1) Fibril material (2.5 μg) was set up in 50 μL phosphate buffer in a 96 well half-area NBS plate (NUNC/Terma). Stepwise ANS titration was conducted from 20 to 167 μM with 100 sec mixing (300 rpm) before each measurement using a FLUOstar Omega plate reader (excitation at […], emission at 485 nm).

Series [2] has as its target T2, C-36 fibrils (Homo sapiens, UniProt P01009).
T2 construct: the 36 residue C-terminal fragment of α1-antitrypsin (C-36)
Nature of the series: Fibril titration with ANS (fluorescence). It is filed as binding. Conditions: 2.5 μg aggregate material, ANS 20 to 167 μM. Here is the method: as §1

Series [3] addresses T3, αSN fibrils (Homo sapiens, UniProt P37840). The experiment in a line: Fibril titration with ANS (fluorescence). It is filed as binding. The note with it: 2.5 μg aggregate material, ANS 20 to 167 μM. The method, then: as §1
Series [4] concerns chymotrypsinogen aggregates. Nature of the series: Fibril titration with ANS (fluorescence). The series is classed as binding. The note with it: 2.5 μg aggregate material, ANS 20 to 167 μM. The method, then:
as §1

Series [5] concerns T4, Ab1 fibrils.
T4 construct: Synthetic amyloid β peptide 1–40 was purchased from Caslo Aps (Lyngby, Denmark); purchased Caslo Aps (Lyngby, Denmark); host or cells: synthetic peptide
The experiment in a line: Fibril titration with ANS (fluorescence). It is filed as binding, human. Conditions: 2.5 μg aggregate material, ANS 20 to 167 μM. The method, then:
as §1

Series [6] relates to T5, Ab2 fibrils.
T5 construct: Two structurally distinct fibrils of the Aβ(1–40) peptide associated with AD
Nature of the series: Fibril titration with ANS (fluorescence). The note with it: 2.5 μg aggregate material, ANS 20 to 167 μM. The series is classed as binding, human. Here is the method: as §1

Series [7] has as its system T6, FAS4 AD aggregates.
T6 construct: a mutated version of the FAS1-4 domain of TGFBIp
The experiment in a line: Fibril titration with ANS (fluorescence). It is filed as binding, human. The note with it: 2.5 μg aggregate material, ANS 20 to 167 μM. The method, then: as §1

Series [8] has as its target T1, glucagon fibrils. Nature of the series: Fibril incubation with plasma, quantitative MS/MS of bound proteins. The note with it: 50:1 w/w plasma protein:fibril. The series is classed as binding.
For series [9], the system named is T5, Ab2 fibrils. The description is as above. Conditions: 50:1 w/w plasma protein:fibril. It is filed as binding, human.
Series [10] concerns the target T2, C-36 fibrils. Described as above. It is filed as binding. The note with it: 50:1 w/w plasma protein:fibril.
Series [11] concerns T7, FAS4-AD aggregates.
T7 construct: aggregates of a mutated version of the FAS1-4 domain of TGFBIp
Described as above. It is filed as binding, human. The arrangement: key to Identification status of plasma protein bound: FAS4-AD: *: Identified, but not quantified; —: Not identified in any of the samples. The note with it: symbol cells. In short, it runs like this:
(§2)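 Fibrils (20 μg) were incubated 1 h at room temperature with plasma (500 μg) or CSF (40 μg) protein in PBS/5 mM EDTA, then pelleted, washed in PBS and 1 M NaCl, and dissolved in 6 M GdmCl. Bound proteins were trypsin-digested for LC-MS/MS and quantified by XIC of the top three peptides, normalized to total ion intensity.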

For series [12], the system named is T4, Ab1 fibrils. Described as above. It is filed as binding, human. Conditions: 50:1 w/w plasma protein:fibril. Put shortly:
as §2

Series [13] deals with fibril systems (Ab1, Ab2, glucagon, αSN and C-36). The experiment in a line: Fibril incubation with plasma, quantitative MS/MS, span over the fibril systems. It is filed as binding, human. The method, then: Plasma and CSF solutions were centrifuged (40,000 g, 20 min) to remove any aggregates. The protein concentration was determined using 280 nm absorbance assuming 1 Abs = 1 mg/mL. […] Control samples (without fibril material) were prepared similarly. All samples were incubated at room temperature for one hour under gentle agitation. Fibrils and fibril-bound proteins were pelleted by centrifugation at 17,000 g for 30 minutes. The supernatant (175 μL) was removed and the aggregate was re-suspended in 175 μL PBS and pelleted again before further preparation for gel analysis and spin-filter assisted digest for quantitative MS/MS.
The fibril-protein pellets were transferred to spin-filters (0.22 μm), washed twice in PBS (100 μL) and once in 1 M NaCl (100 μL). The fibrils and fibril-bound proteins were dissolved by one-hour incubation in 100 μL 6 M guanidinium chloride followed by elution from the spin-filter. […]
The micro-purified tryptic peptides were dissolved in 0.1% formic acid, injected and trapped on an in-house packed trap column (2 cm × 100 μm I.D) with RP ReproSil-Pur C18-AQ 3 μm resin (Dr. Maisch GmbH). […] Elution from the analytical column was performed with a linear gradient from 5% to 35% phase B (90% acetonitrile with 0.1% formic acid) over 20 min for protein identification and 50 min for quantitative analysis, respectively.
All samples were analysed three times, yielding nine MS/MS experiments for each fibril for both plasma and CSF. For the area-based extracted ion chromatogram (XIC) quantification, the acquisition method was set up as an information-dependent acquisition (IDA) experiment collecting up to 25 MS/MS spectra in each 1.6 sec cycle using an exclusion window of 6 sec. […]
XIC quantification was based on the average ion intensity of the three most abundant peptides for each protein. Only proteins quantified in at least four out of nine MS/MS experiments per fibril were included in the quantification. […]

Series [14] deals with T3, αSN fibrils. Nature of the series: Fibril incubation with plasma, quantitative MS/MS of bound proteins. It is filed as binding. The note with it: 50:1 w/w plasma protein:fibril. Put shortly:
as §2

T1 sequence (P01275 53-81 limits assumed): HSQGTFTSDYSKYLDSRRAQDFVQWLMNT
T2 sequence (P01009 383-418 limits assumed): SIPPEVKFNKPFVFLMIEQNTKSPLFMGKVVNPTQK

In the case of `O=S(=O)(O)c1cccc2cccc(Nc3ccccc3)c12` [ANS, 8-anilinonaphthalene sulfonate], the ANS fluorescence signal entry in series [1] is “little or no signal at all”; in [2], “little or no signal at all”; in series [3] it was “significant fluorescence enhancements”; in series [4] it was “intermediate signal intensities”; in [5], “little or no signal at all”; in [6], “little or no signal at all”. The ANS fluorescence signal entry in [7] was “intermediate signal intensities”.

Regarding “Apolipoprotein B-100: plasma protein bound to fibrils”, the “Relative composition of plasma proteins bound: Glucagon” value in series [8] was 0.4 ± 0.0 % of total protein. Further, the “Relative composition of plasma proteins bound: Ab2” value in series [9] is 0.5 ± 0.2 % of total protein. Moreover, in series [10], the “Relative composition of plasma proteins bound: C-36” value is listed as 0.1 ± 0.0 % of total protein. Further, the “Identification status of plasma protein bound: FAS4-AD” value in series [11] is “*”. The “Relative composition of plasma proteins bound: Ab1” value in series [12] is listed as 0.6 ± 0.1 % of total protein. Besides, the “contribution to the fibril interactomes” value in series [13] was 0.4%. Moreover, the “Relative composition of plasma proteins bound: αSN” value in [14] was 0.2 ± 0.1 % of total protein.

For the origin of these results see publication PMC6405930, “Conservation of the Amyloid Interactome Across Diverse Fibrillar Structures” (Scientific Reports, 2019).
